Measured values as given in US8680052B1, “Methods of treating, reducing the incidence of, and/or preventing ischemic events” (The Medicines Company, priority 2013, dated 2014).

Test system: platelets
Assay: Example 4: light transmission aggregometry (LTA) induced by 5 and 20 μM ADP
Type: in vivo, human
Protocol: The study involved 12 patients who met the criteria of being 18-75 years of age, having coronary artery disease (CAD) documented by a previous MI or coronary revascularization, and taking 81 mg of aspirin daily. […] Prohibited concomitant medications included strong and potent CYP3A inhibitors, simvastatin and lovastatin at doses more than 40 mg/day, omeprazole or esomeprazole, and digoxin. Use of non-steroidal anti-inflammatory agents was discouraged during study participation but not prohibited.
Each patient was administered a 30 μg/kg bolus of cangrelor followed immediately by a 2 hr infusion at a rate of 4.0 μg/kg/min. A loading dose of ticagrelor (180 mg) was given after 0.5 hr or 1.25 hr (n=6 for each). Blood for pharmacodynamic platelet function studies was taken after 0.5 or 1.25 hr (corresponding to the time of ticagrelor load, n=6 for each), and then at 1.75, 2, 2.25, 2.5, 2.75, 3, 4, and 5.25 hr. Patients were assigned randomly to receive either 6 (n=6) or 7 (n=6) doses of ticagrelor to be taken every 12 hours following the discontinuation of the infusion of cangrelor. On study day 5, each patient was administered a 30 μg/kg bolus of cangrelor followed immediately by a 2 hr infusion at a rate of 4.0 μg/kg/min. Blood for pharmacodynamic assessment was taken after 1 and 2 hr. Adverse events were queried throughout study participation that ended with a telephone interview performed on study day 10-12.
Pharmacodynamic assessment included light transmission aggregometry (LTA), VerifyNow® P2Y12 assay, vasodilator-stimulated phosphoprotein (VASP) index, and platelet activation measured with the use of flow cytometry. Assessment of LTA, VerifyNow®, and platelet activation with the use of flow cytometry was performed within 30 min of blood being taken. In the case of flow cytometry, samples were processed to fixation and then batched for analysis. For VASP, index samples were batched and processed as recommended by the vendor within 2 h of blood being taken. This approach limited the time from fixation of VASP index to flow analysis to less than 1 h.
LTA induced by 5 μM and 20 μM adenosine diphosphate (ADP) was quantified ex vivo (i.e. in non-adjusted platelet rich plasma). Platelet-poor plasma was set as 100% aggregation, and both maximal (peak) and terminal (at 300 s) aggregation were measured with a PAP4 aggregometer (BioData, Horsham, Pa.). VerifyNow® P2Y12 assay (Accumetrics Inc, San Diego, Calif.) that measures the effects of drugs on the P2Y12 receptor by activating platelets with prostaglandin El in addition to ADP was used in accordance with the instructions provided by the manufacturer. Platelet reactivity was expressed in P2Y12 reaction units (PRU). Activation of platelets was identified with the use of flow cytometry as previously described.^17. And to determine the VASP index, a commercially available kit (Diagnostica Stago, Inc, Parsippany NJ) was used. ^17 Schneider D J, Sobel B E. Streamlining the design of promising clinical trials: in-vitro testing of antithrombotic regimens and multiple agonists of platelet activation. Coron Artery Dis. 2009; 20:175-8.

[1] = Study Day 1, 1.75 h, Ticagrelor at 0.5 hr
[2] = Study Day 1, 1.75 h, Ticagrelor at 1.25 hr
[3] = Study Day 1, 2.0 h, Ticagrelor at 0.5 hr
[4] = Study Day 1, 2.0 h, Ticagrelor at 1.25 hr
[5] = Study Day 1, reference 0.5/1.25 h, All
[6] = Study Day 1, reference 0.5/1.25 h, Ticagrelor at 0.5 hr
[7] = Study Day 1, reference 0.5/1.25 h, Ticagrelor at 1.25 hr
[8] = Study Day 5, 1.0 h, Ticagrelor 6 doses
[9] = Study Day 5, 1.0 h, Ticagrelor 7 doses
[10] = Study Day 5, 2.0 h, Ticagrelor 6 doses
[11] = Study Day 5, 2.0 h, Ticagrelor 7 doses

CSCCNc1nc(SCCC(F)(F)F)nc2c1ncn2[C@@H]1O[C@H](COP(=O)(O)OP(=O)(O)C(Cl)(Cl)P(=O)(O)O)[C@@H](O)[C@H]1O [Cangrelor, cangrelor]
IPA, 5 μM ADP, LTA (Study Day 1, 1.75 h, All): 92 ± 5%
IPA, 20 μM ADP, LTA (Study Day 1, 1.75 h, All): 97 ± 2%
PR, 5 μM ADP, LTA (Study Day 1, 1.75 h, All): 3.4 ± 2.2%
PR, 20 μM ADP, LTA (Study Day 1, 1.75 h, All): 2.2 ± 1.4%
IPA, 5 μM ADP, LTA [1]: 92 ± 5%
IPA, 20 μM ADP, LTA [1]: 97 ± 2%
PR, 5 μM ADP, LTA [1]: 4.2 ± 2.4%
PR, 20 μM ADP, LTA [1]: 2.3 ± 1.0%
IPA, 5 μM ADP, LTA [2]: 93 ± 6%
IPA, 20 μM ADP, LTA [2]: 97 ± 3%
PR, 5 μM ADP, LTA [2]: 2.7 ± 1.8%
PR, 20 μM ADP, LTA [2]: 2 ± 1.8%
IPA, 5 μM ADP, LTA (Study Day 1, 2.0 h, All): 92 ± 3%
IPA, 20 μM ADP, LTA (Study Day 1, 2.0 h, All): 97 ± 3%
PR, 5 μM ADP, LTA (Study Day 1, 2.0 h, All): 4.1 ± 2%
PR, 20 μM ADP, LTA (Study Day 1, 2.0 h, All): 2.3 ± 2.2%
IPA, 5 μM ADP, LTA [3]: 91 ± 3%
IPA, 20 μM ADP, LTA [3]: 95 ± 2%
PR, 5 μM ADP, LTA [3]: 4.8 ± 1.9%
PR, 20 μM ADP, LTA [3]: 3.5 ± 1.9%
IPA, 5 μM ADP, LTA [4]: 93 ± 3%
IPA, 20 μM ADP, LTA [4]: 98 ± 3%
PR, 5 μM ADP, LTA [4]: 3.3 ± 2%
PR, 20 μM ADP, LTA [4]: 1.2 ± 1.9%
IPA, 5 μM ADP, LTA [5]: 93 ± 3%
IPA, 20 μM ADP, LTA [5]: 98 ± 2%
PR, 5 μM ADP, LTA [5]: 3.6 ± 1.8%
PR, 20 μM ADP, LTA [5]: 1.7 ± 1.7%
IPA, 5 μM ADP, LTA [6]: 92 ± 4%
IPA, 20 μM ADP, LTA [6]: 97 ± 2%
PR, 5 μM ADP, LTA [6]: 4.2 ± 2.1%
PR, 20 μM ADP, LTA [6]: 2 ± 1.5%
IPA, 5 μM ADP, LTA [7]: 93 ± 2%
IPA, 20 μM ADP, LTA [7]: 98 ± 3%
PR, 5 μM ADP, LTA [7]: 3 ± 1.4%
PR, 20 μM ADP, LTA [7]: 1.3 ± 2.0%
IPA, 5 μM ADP, LTA (Study Day 5, 1.0 h, All): 96 ± 3%
IPA, 20 μM ADP, LTA (Study Day 5, 1.0 h, All): 98 ± 2%
PR, 5 μM ADP, LTA (Study Day 5, 1.0 h, All): 2.1 ± 1.7%
PR, 20 μM ADP, LTA (Study Day 5, 1.0 h, All): 1.5 ± 1.5%
IPA, 5 μM ADP, LTA [8]: 96 ± 4%
IPA, 20 μM ADP, LTA [8]: 98 ± 2%
PR, 5 μM ADP, LTA [8]: 1.5 ± 1.6%
PR, 20 μM ADP, LTA [8]: 1.5 ± 1.6%
IPA, 5 μM ADP, LTA [9]: 96 ± 3%
IPA, 20 μM ADP, LTA [9]: 98 ± 2%
PR, 5 μM ADP, LTA [9]: 2.7 ± 1.6%
PR, 20 μM ADP, LTA [9]: 1.5 ± 1.5%
IPA, 5 μM ADP, LTA (Study Day 5, 2.0 h, All): 96 ± 4%
IPA, 20 μM ADP, LTA (Study Day 5, 2.0 h, All): 98 ± 2%
PR, 5 μM ADP, LTA (Study Day 5, 2.0 h, All): 2.2 ± 2.2%
PR, 20 μM ADP, LTA (Study Day 5, 2.0 h, All): 1.3 ± 1.6%
IPA, 5 μM ADP, LTA [10]: 97 ± 3%
IPA, 20 μM ADP, LTA [10]: 98 ± 1%
PR, 5 μM ADP, LTA [10]: 1.5 ± 1.5%
PR, 20 μM ADP, LTA [10]: 1.2 ± 1.5%
IPA, 5 μM ADP, LTA [11]: 95 ± 5%
IPA, 20 μM ADP, LTA [11]: 98 ± 3%
PR, 5 μM ADP, LTA [11]: 2.8 ± 2.7%
PR, 20 μM ADP, LTA [11]: 1.5 ± 1.9%
residual reactivity, maximal (combined overall population, 0.5 h after cangrelor was stopped, ticagrelor loaded during infusion): 19%
residual reactivity (combined overall population, end of observation period (5.25 h)): < 5%
